How the values were obtained:
Experiment in all cases: relative viability (nuclei count vs DMSO), 5 days (fraction); higher = more cells survive
BEN = tested on: BEN
Method in brief: (§1)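 Lung cancer cell lines were seeded in 1536-well plates and dosed by pin tool the next day, with either a single drug or a fixed anchor-drug dose combined with five library-drug doses (not always all listed) spaced in √10 steps. Five days later, one step fixed the cells and stained their nuclei (final 0.05% Triton X-100, 1% formaldehyde, 1 ug/ml Hoechst), and nuclei were counted on 4× images. Relative viability is the nuclei count in treated wells divided by the count in vehicle wells, and each value is the median of duplicate plates.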

NCI-H1395 = tested on: NCI-H1395
Method in brief: as §1

HCC-366 = tested on: HCC-366
Method in brief: as §1

HARA = tested on: HARA
Method in brief: as §1

NCI-H2087 = tested on: NCI-H2087
Method in brief: as §1

NCI-H2170 = tested on: NCI-H2170
Method in brief: as §1

NCI-H2009 = tested on: NCI-H2009
Method in brief: as §1

SK-LU-1 = tested on: SK-LU-1
Method in brief: as §1

NCI-H2405 = tested on: NCI-H2405
Method in brief: as §1

SK-MES-1 = tested on: SK-MES-1
Method in brief: as §1

NCI-H661 = tested on: NCI-H661
Method in brief: as §1

SMILES: O=c1cc(N2CCOCC2)oc2c(-c3cccc4c3sc3ccccc34)cccc12 + Cc1cc(Nc2cc(N3CCN(C)CC3)nc(Sc3ccc(NC(=O)C4CC4)cc3)n2)n[nH]1 [Tozasertib] (partner 0.1 µM)
- relative viability (BEN; first compound 0.01 µM): 0.487
- relative viability (BEN; first compound 0.03162 µM): 0.469
- relative viability (BEN; first compound 0.1 µM): 0.482
- relative viability (BEN; first compound 0.3162 µM): 0.463
- relative viability (BEN; first compound 1 µM): 0.531
- relative viability (NCI-H1395; first compound 0.01 µM): 0.78
- relative viability (NCI-H1395; first compound 0.03162 µM): 0.776
- relative viability (NCI-H1395; first compound 0.1 µM): 0.659
- relative viability (NCI-H1395; first compound 0.3162 µM): 0.832
- relative viability (NCI-H1395; first compound 1 µM): 0.682
- relative viability (HCC-366; first compound 0.01 µM): 0.123
- relative viability (HCC-366; first compound 0.03162 µM): 0.125
- relative viability (HCC-366; first compound 0.1 µM): 0.102
- relative viability (HCC-366; first compound 0.3162 µM): 0.211
- relative viability (HCC-366; first compound 1 µM): 0.121
- relative viability (HARA; first compound 0.01 µM): 0.139
- relative viability (HARA; first compound 0.03162 µM): 0.139
- relative viability (HARA; first compound 0.1 µM): 0.477
- relative viability (HARA; first compound 0.3162 µM): 0.103
- relative viability (HARA; first compound 1 µM): 0.128
- relative viability (NCI-H2087; first compound 0.01 µM): 0.289
- relative viability (NCI-H2087; first compound 0.03162 µM): 0.247
- relative viability (NCI-H2087; first compound 0.1 µM): 0.297
- relative viability (NCI-H2087; first compound 0.3162 µM): 0.226
- relative viability (NCI-H2087; first compound 1 µM): 0.25
- relative viability (NCI-H2170; first compound 0.01 µM): 0.741
- relative viability (NCI-H2170; first compound 0.03162 µM): 0.673
- relative viability (NCI-H2170; first compound 0.1 µM): 0.758
- relative viability (NCI-H2170; first compound 0.3162 µM): 0.801
- relative viability (NCI-H2170; first compound 1 µM): 0.707
- relative viability (NCI-H2009; first compound 0.01 µM): 0.747
- relative viability (NCI-H2009; first compound 0.03162 µM): 0.704
- relative viability (NCI-H2009; first compound 0.1 µM): 0.8
- relative viability (NCI-H2009; first compound 0.3162 µM): 0.708
- relative viability (NCI-H2009; first compound 1 µM): 0.708
- relative viability (SK-LU-1; first compound 0.01 µM): 0.314
- relative viability (SK-LU-1; first compound 0.03162 µM): 0.298
- relative viability (SK-LU-1; first compound 0.1 µM): 0.393
- relative viability (SK-LU-1; first compound 0.3162 µM): 0.308
- relative viability (SK-LU-1; first compound 1 µM): 0.329
- relative viability (NCI-H2405; first compound 0.01 µM): 0.727
- relative viability (NCI-H2405; first compound 0.03162 µM): 0.753
- relative viability (NCI-H2405; first compound 0.1 µM): 0.821
- relative viability (NCI-H2405; first compound 0.3162 µM): 0.734
- relative viability (NCI-H2405; first compound 1 µM): 0.75
- relative viability (SK-MES-1; first compound 0.01 µM): 0.964
- relative viability (SK-MES-1; first compound 0.03162 µM): 0.935
- relative viability (SK-MES-1; first compound 0.1 µM): 1.05
- relative viability (SK-MES-1; first compound 0.3162 µM): 0.897
- relative viability (SK-MES-1; first compound 1 µM): 0.875
- relative viability (NCI-H661; first compound 0.01 µM): 0.367
- relative viability (NCI-H661; first compound 0.03162 µM): 0.356
